Results: ChEMBL document CHEMBL3352733, “Liver x receptor agonists for the treatment of coronary heart disease and other disorders” (ACS Med Chem Lett, 2014)

Target: T1, Oxysterols receptor LXR-beta (Homo sapiens) (UniProt P55055)
T1 sequence (whole entry): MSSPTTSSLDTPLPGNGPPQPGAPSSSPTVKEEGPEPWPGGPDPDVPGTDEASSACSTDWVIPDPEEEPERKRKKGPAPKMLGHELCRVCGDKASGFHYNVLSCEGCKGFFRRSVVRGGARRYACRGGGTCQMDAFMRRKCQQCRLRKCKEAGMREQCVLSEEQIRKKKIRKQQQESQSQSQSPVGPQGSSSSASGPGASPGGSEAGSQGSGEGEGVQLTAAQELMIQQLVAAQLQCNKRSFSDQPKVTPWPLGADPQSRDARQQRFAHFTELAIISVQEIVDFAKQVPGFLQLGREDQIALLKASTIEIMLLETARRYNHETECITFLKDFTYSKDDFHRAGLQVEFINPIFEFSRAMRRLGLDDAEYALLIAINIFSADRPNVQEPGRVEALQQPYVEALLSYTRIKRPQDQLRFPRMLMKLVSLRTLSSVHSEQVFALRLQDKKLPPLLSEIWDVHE
Assay: Agonist activity at human LXRbeta expressed in CV1 cells after 20 hrs by luciferase reporter co-transfection assay relative to control
Type: cell-based
Conditions: CV-1

Compound | Efficacy
Cc1nc(C(F)(F)F)c(Cl)n1-c1ccc(-c2cc(F)c(CO)c(S(C)(=O)=O)c2)cc1-n1nncc1-c1ccc(OC(F)(F)F)cc1 | 116%
Cc1nc(C(F)(F)F)cn1-c1ccc(-c2cccc(S(C)(=O)=O)c2)cc1-n1nncc1Cc1cccc(Cl)c1 | 100%
Cc1nc(C(F)(F)F)cn1-c1ccc(-c2cc(F)c(CO)c(S(C)(=O)=O)c2)cc1-c1nc(C(C)C)oc1-c1ccc(OC(F)(F)F)cc1 | 75%
Cc1nc(C(F)(F)F)cn1-c1c(F)cc(-c2cccc(S(C)(=O)=O)c2)cc1-n1nncc1-c1ccc(Cl)cc1 | 85%
